Assays:
Assay in all cases: relative viability (nuclei count vs DMSO), 5 days (fraction); higher = more cells survive
GW-2580 + Trametinib = compound: COC1=CC=C(C=C1)COC2=C(C=C(C=C2)CC3=CN=C(N=C3N)N)OC [GW-2580] + CC(=O)Nc1cccc(-n2c(=O)n(C3CC3)c(=O)c3c(Nc4ccc(I)cc4F)n(C)c(=O)c(C)c32)c1 [Trametinib] (partner 0.02 µM)
Procedure, shortened: (§1)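 Relative viability was taken as the ratio of nuclei in treated wells to nuclei in vehicle wells. Lung cancer cell lines in 1536-well plates received compounds by pin tool one day after seeding, either one drug alone or a fixed anchor-drug dose plus five library-drug doses (not always all listed) in √10 steps. Nuclei were counted on 4× images after 5 days of treatment, and values are medians of duplicate plates.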

GW-2580 + Crizotinib = compound: COC1=CC=C(C=C1)COC2=C(C=C(C=C2)CC3=CN=C(N=C3N)N)OC [GW-2580] + C[C@@H](Oc1cc(-c2cnn(C3CCNCC3)c2)cnc1N)c1c(Cl)ccc(F)c1Cl [Crizotinib] (partner 1 µM)
Procedure, shortened: as §1

GW-2580 + Decitabine = compound: COC1=CC=C(C=C1)COC2=C(C=C(C=C2)CC3=CN=C(N=C3N)N)OC [GW-2580] + Nc1ncn([C@H]2C[C@H](O)[C@@H](CO)O2)c(=O)n1 [Decitabine] (partner 2 µM)
Procedure, shortened: as §1

Fedratinib + Dasatinib = compound: Cc1cnc(Nc2ccc(OCCN3CCCC3)cc2)nc1Nc1cccc(S(=O)(=O)NC(C)(C)C)c1 [Fedratinib] + Cc1nc(Nc2ncc(C(=O)Nc3c(C)cccc3Cl)s2)cc(N2CCN(CCO)CC2)n1 [Dasatinib] (partner 0.075 µM)
Procedure, shortened: as §1

Fedratinib + Vorinostat = compound: Cc1cnc(Nc2ccc(OCCN3CCCC3)cc2)nc1Nc1cccc(S(=O)(=O)NC(C)(C)C)c1 [Fedratinib] + O=C(CCCCCCC(=O)Nc1ccccc1)NO [Vorinostat] (partner 1 µM)
Procedure, shortened: as §1

Cell Line | relative viability (GW-2580 + Trametinib; first compound 0.08 µM) | relative viability (GW-2580 + Trametinib; first compound 0.8 µM) | relative viability (GW-2580 + Trametinib; first compound 2.53 µM) | relative viability (GW-2580 + Trametinib; first compound 8 µM) | relative viability (GW-2580 + Crizotinib; first compound 0.08 µM) | relative viability (GW-2580 + Crizotinib; first compound 0.8 µM) | relative viability (GW-2580 + Crizotinib; first compound 2.53 µM) | relative viability (GW-2580 + Crizotinib; first compound 8 µM) | relative viability (GW-2580 + Decitabine; first compound 0.08 µM) | relative viability (GW-2580 + Decitabine; first compound 0.8 µM) | relative viability (GW-2580 + Decitabine; first compound 2.53 µM) | relative viability (GW-2580 + Decitabine; first compound 8 µM) | relative viability (Fedratinib + Dasatinib; first compound 0.1 µM) | relative viability (Fedratinib + Dasatinib; first compound 0.3162 µM) | relative viability (Fedratinib + Dasatinib; first compound 1 µM) | relative viability (Fedratinib + Vorinostat; first compound 0.1 µM) | relative viability (Fedratinib + Vorinostat; first compound 0.3162 µM) | relative viability (Fedratinib + Vorinostat; first compound 1 µM)
NCI-H2085 | 0.526 | 0.515 | 0.484 | 0.638 | 0.903 | 0.918 | 0.779 | 0.758 | 0.577 | 0.542 | 0.541 | 0.589 | 0.259 | 0.26 | 0.246 | 0.77 | 0.825 | 0.787
SW 1573 | 0.535 | 0.598 | 0.532 | 0.614 | 0.73 | 0.764 | 0.803 | 0.643 | 0.498 | 0.58 | 0.422 | 0.537 | 0.612 | 0.614 | 0.305 | 0.744 | 0.701 | 0.413
NCI-H727 | 0.417 | 0.382 | 0.364 | 0.383 | 0.85 | 0.819 | 0.79 | 0.5 | 0.784 | 1.12 | 0.808 | 0.768 | 0.296 | 0.299 | 0.392 | 1.15 | 1.08 | 1.13
NCI-H441 | 0.409 | 0.463 | 0.483 | 0.374 | 0.873 | 0.736 | 0.572 | 0.795 | 0.207 | 0.198 | 0.243 | 0.222 | 0.618 | 0.314 | 0.493 | 0.921 | 0.749 | 0.615
LOU-NH91 | 0.796 | 0.857 | 0.738 | 0.827 | 0.731 | 0.75 | 0.753 | 0.728 | 0.82 | 0.861 | 0.782 | 0.905 | 0.518 | 0.518 | 0.557 | 0.777 | 1.09 | 0.782
NCI-H3122 | 0.305 | 0.264 | 0.18 | 0.234 | 0.286 | 0.309 | 0.247 | 0.238 | 0.377 | 0.411 | 0.437 | 0.54 | 0.747 | 0.738 | 0.816 | 1.07 | 1 | 0.988
NCI-H460 | 0.286 | 0.168 | 0.0886 | 0.187 | 1.07 | 1.14 | 0.819 | 0.839 | 0.577 | 0.574 | 0.461 | 0.461 | 0.496 | 0.415 | 0.329 | 1.14 | 0.768 | 0.736
NCI-H650 | 0.945 | 1.06 | 0.953 | 0.907 | 0.834 | 0.663 | 0.668 | 0.594 | 0.337 | 0.315 | 0.292 | 0.328 | 0.378 | 0.434 | 0.394 | 0.381 | 0.42 | 0.332
NCI-H661 | 0.678 | 0.566 | 0.516 | 0.504 | 0.983 | 1.22 | 0.917 | 0.843 | 0.597 | 0.542 | 0.516 | 0.546 | 0.83 | 0.912 | 0.612 | 0.785 | 0.833 | 0.716
NCI-H1734 | 0.765 | 0.69 | 0.695 | 0.647 | 0.66 | 0.74 | 0.656 | 0.509 | 0.522 | 0.457 | 0.539 | 0.55 | 0.455 | 0.464 | 0.4 | 1.07 | 0.796 | 0.685
LXF-289 | 0.724 | 0.708 | 0.688 | 0.651 | 0.846 | 0.818 | 0.775 | 0.705 | 0.358 | 0.391 | 0.407 | 0.368 | 0.249 | 0.158 | 0.203 | 0.765 | 0.748 | 0.775
H3255 | 0.512 | 0.627 | 0.44 | 0.553 | 0.837 | 0.963 | 0.744 | 0.914 | 0.564 | 0.613 | 0.557 | 0.576 | 0.397 | 0.345 | 0.293 | 0.84 | 0.876 | 0.696
201T | 0.76 | 0.753 | 0.754 | 0.748 | 1.04 | 1.06 | 1.07 | 0.993 | 0.895 | 0.914 | 0.873 | 0.887 | 0.515 | 0.571 | 0.545 | 0.935 | 0.975 | 0.955
NCI-H2126 | 0.547 | 0.575 | 0.5 | 0.649 | 1.06 | 1.06 | 1.01 | 1.04 | 0.582 | 0.614 | 0.574 | 0.569 | 0.577 | 0.655 | 0.426 | 0.732 | 0.786 | 0.708
HOP-62 | 0.406 | 0.412 | 0.359 | 0.378 | 0.986 | 1.12 | 0.926 | 0.98 | 0.174 | 0.192 | 0.231 | 0.23 | 0.739 | 0.6 | 0.503 | 0.64 | 0.605 | 0.594
NCI-H520 | 0.736 | 0.606 | 0.608 | 0.539 | 0.791 | 0.956 | 0.763 | 0.621 | 0.501 | 0.489 | 0.524 | 0.545 | 0.18 | 0.205 | 0.196 | 0.657 | 0.654 | 0.634
NCI-H1755 | 0.786 | 0.838 | 0.777 | 0.702 | 0.852 | 1.03 | 0.818 | 0.71 | 0.695 | 0.714 | 0.757 | 0.654 | 0.351 | 0.404 | 0.39 | 0.761 | 0.786 | 0.705

— the supplement of paper PMC10307832
